These results are taken from US20250000083A1, “CRYOPRESERVATION PREPARATION FOR CORNEAL ENDOTHELIAL CELLS AND METHOD FOR PRODUCING SAID CRYOPRESERVATION PREPARATION” (THE DOSHISHA, priority 2021, published 2025).

SMILES strings stand for the structures.

Series [1] has as its system Human corneal endothelial cells. As to the kind of experiment: Adhesion of thawed cells cultured in medium with addition of DMSO (phase contrast microscopy), Example 3. It counts as cell-based. Here is the method:
(§1) • 1. Collect cells in the same manner as in Example 2 (Steps 1 to 10) and preserve the cells in cryotubes using Cryostor CS2. • 2. Freeze in a programmable freezer from 4° C. to −80° C. at −0.5° C./min. 3. Transfer to a Bicell processing housing previously cooled at −80° C. when a temperature was decreased to −80° C. and cryopreserve the Bicell in a freezer at −80° C. for 3 days. • 4. After 3 days of cryopreservation, thaw the cryotubes in which the cells were preserved in a water bath at 37° C. for 1 to 2 minutes. • 5. Collect the cells in a medium warmed to 37° C. in advance, and measure the number of cells collected and cell viability by trypan blue staining. • 6. Dispense the collected cells into four 15 mL STEMFULLS and centrifuge at 300 G for 5 minutes. • 7. After centrifugation, remove a supernatant, adjust a cell density to 1000 cells/mm^2 using media containing 10%, 5%, 2%, and 0% DMSO, and reseed in 12-well plates. • 8. Photograph the cells under a phase contrast microscope at 1 h, 3 h, 6 h, and 24 h after seeding. • 9. After taking photographs of the cells at each time point, collect all cells in the container, including floating cells, and determine cell viability by trypan blue staining.

Series [2] has the same test system. As to the kind of experiment: Viability of cells reseeded in medium with DMSO and collected (trypan blue), Example 3. It counts as cell-based. The note with it: medium containing 10% DMSO. Here is the method: as §1

As to `C[S+](C)[O-]` [DMSO, dimethyl sulfoxide], the cell adhesion result in series [1] (5% DMSO, after 3 and 6 hours) is on record as “less than half of the cells were adherent”; in series [1] (5% DMSO, after 1 hour) it was “almost no adherent cells”; in series [1] (5% DMSO, after 24 hours), “almost no adherent cells”; in series [1] (10% DMSO, until 24 hours after seeding), “no cells were adherent”. For the same molecule, the “adhesion rate compared with medium without DMSO” value in series [1] (medium containing 2% DMSO) was “not different”. The “number of cells compared with medium without DMSO” value in series [1] (medium supplemented with 5% DMSO) and in series [1] (medium supplemented with 10% DMSO) was “significantly lower” each time. The “viability of cells after reseeded and collected” value in series [2] (at 1 hour) is given as “no decrease in viability”; in series [2] (subsequent to 1 hour), “decrease in viability”.
